Laboratory results published in ChEMBL document CHEMBL5360607, “The Hitchhiker's Guide to Deep Learning Driven Generative Chemistry” (ACS Med Chem Lett, 2023).

Tests used:
[1] = target: Tyrosine-protein kinase JAK2 (Homo sapiens) (UniProt O60674); experiment: Inhibition of JAK2 (unknown origin) at 1 uM relative to control
[2] = target: Serine/threonine-protein kinase B-raf (Homo sapiens, UniProt P15056); experiment: Inhibition of BRAF (unknown origin)
[3] = target: Fibroblast growth factor receptor 1 (Homo sapiens, UniProt P11362); experiment: Inhibition of FGFR1 (unknown origin)
[4] = target: Fibroblast growth factor receptor 4 (Homo sapiens, UniProt P22455); experiment: Inhibition of FGFR4 (unknown origin)
[5] = target: Fibroblast growth factor receptor 2 (Homo sapiens, UniProt P21802); experiment: Inhibition of FGFR2 (unknown origin)
[6] = target: Fibroblast growth factor receptor 3 (Homo sapiens, UniProt P22607); experiment: Inhibition of FGFR3 (unknown origin)
[7] = target: T1, High affinity nerve growth factor receptor (Homo sapiens, UniProt P04629); experiment: Inhibition of TRKA (unknown origin)
[8] = target: T2, Receptor-type tyrosine-protein kinase FLT3 (Homo sapiens, UniProt P36888); experiment: Inhibition of FLT3 (unknown origin)
T2 sequence (P36888 whole entry): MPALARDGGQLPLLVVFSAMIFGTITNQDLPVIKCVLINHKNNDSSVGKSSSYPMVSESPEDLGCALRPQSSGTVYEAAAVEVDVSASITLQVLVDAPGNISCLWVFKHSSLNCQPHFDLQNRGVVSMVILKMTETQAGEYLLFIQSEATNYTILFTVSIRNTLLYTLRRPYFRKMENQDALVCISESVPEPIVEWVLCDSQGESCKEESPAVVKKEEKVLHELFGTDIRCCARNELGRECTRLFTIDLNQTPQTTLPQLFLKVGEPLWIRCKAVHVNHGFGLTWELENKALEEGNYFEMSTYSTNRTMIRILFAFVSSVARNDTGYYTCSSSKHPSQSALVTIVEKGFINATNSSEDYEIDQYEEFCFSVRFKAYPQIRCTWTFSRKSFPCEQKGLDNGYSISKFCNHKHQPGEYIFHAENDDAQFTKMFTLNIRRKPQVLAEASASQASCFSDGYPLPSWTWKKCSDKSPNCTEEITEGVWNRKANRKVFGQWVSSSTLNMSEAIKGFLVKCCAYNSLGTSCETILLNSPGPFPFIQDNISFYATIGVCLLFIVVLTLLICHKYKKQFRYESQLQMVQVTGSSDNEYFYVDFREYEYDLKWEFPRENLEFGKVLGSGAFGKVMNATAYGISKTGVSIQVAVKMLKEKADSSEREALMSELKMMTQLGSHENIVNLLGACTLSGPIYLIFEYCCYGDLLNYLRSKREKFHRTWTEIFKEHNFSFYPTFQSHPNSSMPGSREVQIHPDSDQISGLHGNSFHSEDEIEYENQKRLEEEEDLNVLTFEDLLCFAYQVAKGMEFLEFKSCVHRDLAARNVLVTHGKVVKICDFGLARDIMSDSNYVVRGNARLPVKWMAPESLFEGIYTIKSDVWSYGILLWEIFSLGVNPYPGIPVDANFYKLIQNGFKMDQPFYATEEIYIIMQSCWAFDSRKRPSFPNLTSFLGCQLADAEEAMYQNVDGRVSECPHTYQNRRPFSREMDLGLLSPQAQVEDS

[9] = target: T1, High affinity nerve growth factor receptor; experiment: Inhibition of TRKA (unknown origin) at 10 uM relative to control
Homo sapiens = organism: Homo sapiens; experiment: Inhibition of FLT (unknown origin) at 10 uM relative to control
[10] = target: Protein kinase C (PKC) (Homo sapiens) (UniProt O94806+P41743+P17252+P05129+Q05655+P05771+Q05513+Q02156+P24723+Q15139+Q04759); experiment: Inhibition of PKC (unknown origin) at 10 uM relative to control; format: protein assay
[11] = target: Fibroblast growth factor receptor (Homo sapiens) (UniProt P22607+P11362+P22455+P21802); experiment: Inhibition of FGFR (unknown origin) at 10 uM relative to control; format: protein assay
[12] = target: Maternal embryonic leucine zipper kinase (Homo sapiens) (UniProt Q14680); experiment: Inhibition of MELK (unknown origin) at 10 uM relative to control
[13] = target: Receptor-type tyrosine-protein kinase FLT3 (Homo sapiens, UniProt P36888, D835Y); experiment: Inhibition of FLT3 D835Y (unknown origin)
[14] = target: T3, Macrophage colony-stimulating factor 1 receptor (Homo sapiens, UniProt P07333); experiment: Inhibition of CSF1R (unknown origin)
Adenosine receptor A2a = Adenosine receptor A2a (Homo sapiens, UniProt P29274); experiment: Binding affinity to adenosine receptor A2a (unknown origin) assessed as inhibition constant
Adenosine receptor A1 = target: T4, Adenosine receptor A1 (Homo sapiens, UniProt P30542); experiment: Binding affinity to adenosine receptor A1 (unknown origin) assessed as inhibition constant
T4 sequence (P30542 whole entry): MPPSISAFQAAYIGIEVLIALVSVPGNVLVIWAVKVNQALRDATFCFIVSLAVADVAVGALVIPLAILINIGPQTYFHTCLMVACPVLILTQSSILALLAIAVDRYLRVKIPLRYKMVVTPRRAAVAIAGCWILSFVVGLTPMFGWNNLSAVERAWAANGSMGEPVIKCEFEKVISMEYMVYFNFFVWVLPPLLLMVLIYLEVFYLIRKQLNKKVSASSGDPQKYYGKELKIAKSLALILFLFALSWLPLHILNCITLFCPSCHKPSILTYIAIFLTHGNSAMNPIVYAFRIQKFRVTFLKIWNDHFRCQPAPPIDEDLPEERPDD

[15] = target: T3, Macrophage colony-stimulating factor 1 receptor; experiment: Inhibition of FMS (unknown origin)
[16] = target: Tyrosine-protein kinase BTK (Homo sapiens, UniProt Q06187); experiment: Inhibition of BTK (unknown origin)

Tyrosine-protein kinase JAK2 (Homo sapiens), sequence (O60674 whole entry): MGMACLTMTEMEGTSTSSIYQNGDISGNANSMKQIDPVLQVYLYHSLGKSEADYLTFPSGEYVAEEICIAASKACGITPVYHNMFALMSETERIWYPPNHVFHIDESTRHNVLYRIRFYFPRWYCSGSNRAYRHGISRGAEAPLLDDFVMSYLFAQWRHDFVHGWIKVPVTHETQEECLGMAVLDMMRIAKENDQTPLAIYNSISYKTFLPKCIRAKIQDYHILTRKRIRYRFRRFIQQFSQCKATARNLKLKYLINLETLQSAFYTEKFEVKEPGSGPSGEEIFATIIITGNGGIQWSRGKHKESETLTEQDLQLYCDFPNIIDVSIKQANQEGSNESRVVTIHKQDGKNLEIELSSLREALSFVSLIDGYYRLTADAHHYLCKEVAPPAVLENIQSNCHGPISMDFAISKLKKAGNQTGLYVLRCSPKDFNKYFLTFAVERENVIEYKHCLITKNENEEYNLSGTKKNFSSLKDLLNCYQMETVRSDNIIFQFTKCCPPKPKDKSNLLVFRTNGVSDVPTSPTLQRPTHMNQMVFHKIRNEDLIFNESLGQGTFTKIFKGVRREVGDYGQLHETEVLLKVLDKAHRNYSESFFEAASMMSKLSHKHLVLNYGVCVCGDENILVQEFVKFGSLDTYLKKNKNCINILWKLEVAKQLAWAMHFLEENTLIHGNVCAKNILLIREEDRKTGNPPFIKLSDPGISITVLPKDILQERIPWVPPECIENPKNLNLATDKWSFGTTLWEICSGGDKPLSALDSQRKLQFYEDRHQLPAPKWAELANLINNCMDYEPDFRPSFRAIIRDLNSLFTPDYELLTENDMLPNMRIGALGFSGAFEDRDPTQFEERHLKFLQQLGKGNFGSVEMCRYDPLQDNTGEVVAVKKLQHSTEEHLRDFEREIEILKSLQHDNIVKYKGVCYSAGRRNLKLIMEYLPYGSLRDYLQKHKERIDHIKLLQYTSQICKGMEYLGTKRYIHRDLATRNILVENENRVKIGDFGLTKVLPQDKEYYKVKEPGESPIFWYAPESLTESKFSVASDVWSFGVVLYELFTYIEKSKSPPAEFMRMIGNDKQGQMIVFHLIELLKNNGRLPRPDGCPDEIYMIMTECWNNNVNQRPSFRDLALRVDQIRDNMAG
T3 sequence (P07333 whole entry): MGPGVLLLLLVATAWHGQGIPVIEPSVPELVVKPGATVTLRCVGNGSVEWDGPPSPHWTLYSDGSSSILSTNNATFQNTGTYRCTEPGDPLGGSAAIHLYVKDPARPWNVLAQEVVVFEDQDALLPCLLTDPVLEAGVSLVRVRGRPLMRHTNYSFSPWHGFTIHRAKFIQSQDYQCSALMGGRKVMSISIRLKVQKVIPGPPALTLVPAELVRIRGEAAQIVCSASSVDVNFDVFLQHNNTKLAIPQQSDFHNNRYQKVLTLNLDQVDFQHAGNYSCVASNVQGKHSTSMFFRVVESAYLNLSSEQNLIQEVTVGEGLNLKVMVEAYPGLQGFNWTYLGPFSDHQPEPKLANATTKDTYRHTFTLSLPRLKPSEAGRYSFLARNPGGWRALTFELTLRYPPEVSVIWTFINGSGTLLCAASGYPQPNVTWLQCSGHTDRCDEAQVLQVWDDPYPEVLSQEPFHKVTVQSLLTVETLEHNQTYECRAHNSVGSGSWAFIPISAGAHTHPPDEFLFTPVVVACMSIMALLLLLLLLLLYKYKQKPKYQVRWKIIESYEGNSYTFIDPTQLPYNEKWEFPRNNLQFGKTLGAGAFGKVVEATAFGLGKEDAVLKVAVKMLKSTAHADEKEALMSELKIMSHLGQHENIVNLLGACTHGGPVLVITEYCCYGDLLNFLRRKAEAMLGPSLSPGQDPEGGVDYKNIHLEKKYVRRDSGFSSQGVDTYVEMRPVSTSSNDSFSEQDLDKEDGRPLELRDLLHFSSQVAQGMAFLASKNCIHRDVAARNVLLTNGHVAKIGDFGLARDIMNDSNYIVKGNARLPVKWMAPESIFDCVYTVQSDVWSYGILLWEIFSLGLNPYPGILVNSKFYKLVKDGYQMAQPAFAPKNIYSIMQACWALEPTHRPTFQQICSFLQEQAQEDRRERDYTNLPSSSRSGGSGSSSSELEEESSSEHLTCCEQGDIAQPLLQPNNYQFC
Fibroblast growth factor receptor 1, sequence (P11362 whole entry): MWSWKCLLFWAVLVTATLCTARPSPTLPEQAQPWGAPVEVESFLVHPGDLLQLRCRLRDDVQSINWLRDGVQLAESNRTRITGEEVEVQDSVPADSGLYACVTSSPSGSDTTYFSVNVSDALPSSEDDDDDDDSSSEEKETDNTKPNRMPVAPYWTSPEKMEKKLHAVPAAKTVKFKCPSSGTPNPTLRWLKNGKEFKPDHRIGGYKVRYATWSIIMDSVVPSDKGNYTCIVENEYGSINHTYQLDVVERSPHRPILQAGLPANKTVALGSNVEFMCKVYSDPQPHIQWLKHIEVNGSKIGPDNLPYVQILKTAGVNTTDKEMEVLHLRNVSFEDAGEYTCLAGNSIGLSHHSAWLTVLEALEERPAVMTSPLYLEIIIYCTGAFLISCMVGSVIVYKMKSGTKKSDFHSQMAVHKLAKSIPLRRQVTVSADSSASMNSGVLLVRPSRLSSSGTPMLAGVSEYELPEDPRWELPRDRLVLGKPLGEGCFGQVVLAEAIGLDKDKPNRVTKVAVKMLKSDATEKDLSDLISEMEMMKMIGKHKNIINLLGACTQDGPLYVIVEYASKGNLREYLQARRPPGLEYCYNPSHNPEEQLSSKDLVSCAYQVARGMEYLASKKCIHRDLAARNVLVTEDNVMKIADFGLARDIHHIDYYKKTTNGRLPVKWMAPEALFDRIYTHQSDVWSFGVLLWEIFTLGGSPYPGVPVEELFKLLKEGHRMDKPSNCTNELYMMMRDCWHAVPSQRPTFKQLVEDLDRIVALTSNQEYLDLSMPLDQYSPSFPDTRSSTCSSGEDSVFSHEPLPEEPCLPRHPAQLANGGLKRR
Fibroblast growth factor receptor 4, sequence (P22455 whole entry): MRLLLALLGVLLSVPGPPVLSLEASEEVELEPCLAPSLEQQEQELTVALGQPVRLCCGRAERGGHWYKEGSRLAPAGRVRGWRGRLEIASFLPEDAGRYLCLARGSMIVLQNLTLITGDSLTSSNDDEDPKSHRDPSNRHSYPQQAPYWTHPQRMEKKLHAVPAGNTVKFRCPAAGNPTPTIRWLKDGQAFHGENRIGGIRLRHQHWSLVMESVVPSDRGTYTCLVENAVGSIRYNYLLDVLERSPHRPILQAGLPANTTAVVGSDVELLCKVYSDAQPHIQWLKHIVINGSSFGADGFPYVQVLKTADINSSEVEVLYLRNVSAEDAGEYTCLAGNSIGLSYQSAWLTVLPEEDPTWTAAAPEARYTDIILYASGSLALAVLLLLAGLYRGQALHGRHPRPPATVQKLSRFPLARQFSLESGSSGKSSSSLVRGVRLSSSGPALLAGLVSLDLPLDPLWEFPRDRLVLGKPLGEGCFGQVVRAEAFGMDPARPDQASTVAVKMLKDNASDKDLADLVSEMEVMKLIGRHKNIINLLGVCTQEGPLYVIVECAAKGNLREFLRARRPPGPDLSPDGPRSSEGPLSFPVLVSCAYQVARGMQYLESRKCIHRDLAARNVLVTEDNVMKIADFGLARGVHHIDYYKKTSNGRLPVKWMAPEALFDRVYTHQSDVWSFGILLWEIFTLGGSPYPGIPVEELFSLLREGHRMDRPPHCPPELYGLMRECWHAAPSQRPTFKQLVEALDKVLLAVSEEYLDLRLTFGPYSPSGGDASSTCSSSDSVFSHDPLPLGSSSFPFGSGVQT
Fibroblast growth factor receptor 3, sequence (P22607 whole entry): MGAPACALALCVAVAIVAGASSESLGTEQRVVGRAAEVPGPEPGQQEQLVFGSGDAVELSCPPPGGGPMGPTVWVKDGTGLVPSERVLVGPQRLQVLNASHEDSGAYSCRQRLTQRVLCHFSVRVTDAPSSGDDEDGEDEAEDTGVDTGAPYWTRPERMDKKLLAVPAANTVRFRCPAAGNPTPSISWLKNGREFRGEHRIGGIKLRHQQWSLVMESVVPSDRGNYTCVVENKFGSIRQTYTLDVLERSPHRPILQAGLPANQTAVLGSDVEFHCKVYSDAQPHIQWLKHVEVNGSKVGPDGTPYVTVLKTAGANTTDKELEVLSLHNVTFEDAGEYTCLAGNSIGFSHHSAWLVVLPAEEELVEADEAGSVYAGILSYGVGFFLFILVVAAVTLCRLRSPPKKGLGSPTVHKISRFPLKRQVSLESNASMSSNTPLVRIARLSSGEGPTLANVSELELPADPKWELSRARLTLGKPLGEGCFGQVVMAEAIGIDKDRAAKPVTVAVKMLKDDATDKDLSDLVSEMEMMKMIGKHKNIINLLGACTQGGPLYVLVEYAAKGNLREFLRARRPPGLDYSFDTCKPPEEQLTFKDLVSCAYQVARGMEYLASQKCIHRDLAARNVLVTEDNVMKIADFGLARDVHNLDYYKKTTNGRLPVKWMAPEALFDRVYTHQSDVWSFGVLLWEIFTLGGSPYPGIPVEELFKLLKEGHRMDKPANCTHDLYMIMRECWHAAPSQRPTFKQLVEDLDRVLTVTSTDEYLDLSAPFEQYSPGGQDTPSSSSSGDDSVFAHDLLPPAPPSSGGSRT
Adenosine receptor A2a, sequence (P29274 whole entry): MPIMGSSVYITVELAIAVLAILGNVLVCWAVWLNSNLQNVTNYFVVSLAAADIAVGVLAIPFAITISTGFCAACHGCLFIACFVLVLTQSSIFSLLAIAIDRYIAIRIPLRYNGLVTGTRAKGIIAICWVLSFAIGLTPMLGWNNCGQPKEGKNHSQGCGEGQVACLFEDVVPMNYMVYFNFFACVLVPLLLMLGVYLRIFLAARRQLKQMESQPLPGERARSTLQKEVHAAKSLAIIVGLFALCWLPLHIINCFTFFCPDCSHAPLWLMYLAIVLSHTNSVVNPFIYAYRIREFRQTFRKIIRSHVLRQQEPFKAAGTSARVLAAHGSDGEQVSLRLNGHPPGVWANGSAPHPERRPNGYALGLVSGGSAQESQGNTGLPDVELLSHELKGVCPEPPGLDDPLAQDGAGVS

`CN(c1ncccc1CNc1c(C#N)cnc2[nH]ccc12)S(C)(=O)=O` was tested, and the inhibition [1] was 68%.
For `CNC(=O)c1ccccc1Nc1c(C(F)(F)F)cnc2[nH]c(-c3ccc(F)cc3)cc12`, the inhibition [1] was 88%.
`COc1cncc(-c2cn(-c3c(F)ccc(NS(=O)(=O)C(C)C)c3F)nn2)c1` showed an EC50 [2] of 493 nM.
Work on `C=CC(=O)N1CC[C@H](n2cc(-c3cc4ccccc4o3)c3c(N)n[nH]c(=O)c32)C1` yielded an IC50 [3] of under 10 nM, an IC50 [4] of under 10 nM and an IC50 [5] of under 10 nM. The IC50 [6] was under 10 nM.
With `CN(C)S(=O)(=O)Nc1cccc(-c2cnn(-c3ccc(C(F)(F)F)cc3)c2)c1` the IC50 [7] was 5800 nM, the IC50 [8] was 13600 nM and the inhibition [9] was 55%. The inhibition (Homo sapiens) was 45%, the inhibition [10] was 35% and the inhibition [11] was 35%. The inhibition [12] was 35% and the IC50 [13] was 1830 nM.
`O=C(NCc1ccc(C(F)(F)F)nc1)Nc1ccc(Oc2ncnc3[nH]ccc23)cc1` showed an IC50 [14] of 20 nM.
`O=c1[nH]nc(NC2CCCC2)c2nnn(Cc3cccs3)c12` gave a Ki (Adenosine receptor A2a) of 895 nM and a Ki (Adenosine receptor A1) of 46.7 nM.
`COc1ncc(CNc2ccc(Cc3c[nH]c4ncc(C(F)(F)F)cc34)c(F)n2)cc1F` was tested, and the IC50 [8] was under 100 nM and the IC50 [15] was under 100 nM.
Work on `COc1ccc(F)cc1C(=O)NCc1ccc(-c2nn(C3CCCC3)c3c(=O)[nH]nc(N)c23)cc1` yielded an IC50 [16] of 0.5 nM.
